Results as given in PMC12662848 (Cancer Chemotherapy and Pharmacology, 2025).

Experiments:
BCL-2 [1] = assay: Automated Western blot (WES) analysis of BCL-2 protein in patient PBMCs; format: in vivo, human
Experimental: (§1) PBMCs from the trial patients or healthy donors were isolated from whole blood using Lymphoprep™ ([…] Technologies, Cat. #07801) following the manufacturer’s protocol. Whole blood was diluted 1:1 with room temperature phosphate-buffered saline (PBS) containing 2% fetal bovine serum (FBS) and carefully layered over an equal volume of Lymphoprep™ in a 50 mL conical tube. Samples were centrifuged at 800 × g for 20–30 min at room temperature with the brake off. The PBMC layer formed at the interface between the plasma and Lymphoprep™ was gently collected and transferred to a new tube. Cells were washed once with PBS containing 2% FBS by centrifugation at 300 × g for 10 min, and the final pellet was resuspended in DMEM media for downstream culture.
The BCL-2 protein levels in patient PBMCs were analyzed using PBMC lysate in the automated quantitative WES™ system (https://www.bio-techne.com/brands/proteinsimple), as we previously described. Briefly, the Simple Western WES™ immunoassays take place in capillaries and separate proteins by size as they migrate through stacking and separation matrix. The separated proteins are immobilized to the capillary wall via a proprietary, photoactivated capture chemistry. […] Quantitative results such as M.W, signal intensity (area), % area, and signal-to-noise for each immunodetected protein are presented in the results table automatically. […]

BCL-2 [2] = assay: Western blotting of BCL-2α/β proteins and cleaved caspase-3 in healthy donor PBMCs treated ex vivo with ABT-199; format: cell-based, human; conditions: 1 µM
Experimental: as §1
ABT-199 (S8048, Selleck Chemicals) was dissolved in DMSO. Healthy donor PBMCs were seeded at a density of 2 × 10⁶ cells per 60 mm dish and treated with 1 μM of ABT-199 for various time intervals (i.e., 2, 4, 8, and 24 h). At the end of each time point, PBMCs were harvested for protein and RNA extraction (below). All treatments were performed in 3–6 biological replicates and control samples were treated with vehicle (DMSO) only.
PBMC samples from above were harvested using 0.1% trypsin–EDTA solution (Gibco) and centrifuged (1,000 rcf, 4 min, 4 °C), washed with DPBS (Gibco), centrifuged again (1,000 rcf, 4 min, 4 °C), and the pellet was lysed in denaturing buffer containing Halt protease inhibitor cocktail (Thermo Fisher Scientific; Cat# SD-001/SN-002) for 15 min on ice. After centrifugation (15,000 rcf, 15 min, 4 °C), an aliquot of the supernatant was taken to determine the protein concentration using a BCA Protein Assay Kit (Thermo Fisher Scientific). Protein samples were mixed in NuPAGE LDS buffer and 1 × reducing agent (Invitrogen) and denatured at 95 °C for 5 min. Proteins separated by sodium dodecyl sulfate–polyacrylamide gel electrophoresis (SDS-PAGE) were transferred to a nitrocellulose membrane at 110 V for 110 min in a wet tank transfer system (Surelock system, Invitrogen). […]

CC1(C)CCC(CN2CCN(c3ccc(C(=O)NS(=O)(=O)c4ccc(NCC5CCOCC5)c([N+](=O)[O-])c4)c(Oc4cnc5[nH]ccc5c4)c3)CC2)=C(c2ccc(Cl)cc2)C1 [venetoclax]
BCL-2β and BCL-2α protein in patients' PBMCs (BCL-2 [1]; three 'responsive' patients (02–01, 02–07, 01–03), early cycles of treatment): promoted the generation of BCL-2β with concordant reduction in BCL-2α protein
BCL-2α and BCL-2β protein in patients' PBMCs (BCL-2 [1]; three 'responsive' patients, late cycles and towards the end of treatment (EoT)): markedly reduced
Apoptosis: active (cleaved) caspase-3 (BCL-2 [2]; PBMCs from all 3 healthy donors): increased active (cleaved) caspase-3
BCL-2β protein levels and BCL-2β/BCL-2α ratios (BCL-2 [2]; all 3 healthy donor PBMCs, from 2 h up to 8 h): upregulated BCL-2β protein levels and increased the BCL-2β/BCL-2α ratios
BCL-2α/BCL-2β proteins (BCL-2 [2]; healthy donor PBMCs, ≥ 24 h post treatment): lost and undetectable
